# In patent US12257225B2, “Polyoxometalate complexes and pharmaceutical compositions” (Emory University, priority 2016, dated 2025):
# Several values for one entry are separate records, joined by “and”; a condition that tells them apart may be missing. Equal entries are not always repeated. Entries after “also recorded” stand apart in the source; their conditions may differ.
# Tests used:
# KB-3-1 cancer cell line = experiment: Cytotoxicity, cell counting kit-8, KB-3-1; type: cell-based, human; settings: KB-3-1 cells, 72 h
# Description: (§1) A variety of cancer or normal cells were grown in 96-well plates and treated with VPOA-6 at 0-20 μM for 72 h. Cytotoxicity was measured using cell counting kit-8.
# The effective catalytic oxidation of cellular antioxidants by VPOA-6, led to an assessment of the viability of both cancer and normal cell lines in the presence of VPOA-6. Four VPOA analogues (FIG. 1B) for selectivity of VPOA-6 in killing cancer cells by cytotoxicity towards the fast-growing KB-3-1 cancer cell line.
# (§2) Cell lines used in this study are as follows.
# [1] = test system: normal proliferating cells; experiment: Selective killing of cancer versus normal proliferating cells; type: cell-based; settings: for activity and selectivity, KB-3-1 versus normal cells: simple vanadium compounds
# Description: as §1
# The effect of VPOA-6 on the viability of a spectrum of cancer cells and normal proliferating cells were then evaluated. […] In particular, four major types of human cancer cell lines, A549 (lung), U87 (brain), SKOV-3 (ovarian), and KB-3-1 (cervical), are highly sensitive to VPOA-6 with IC50 values below 5 μM.
# cancer cells [2] = test system: cancer cells
# KB-3-1 cells = experiment: Total cellular ROS by flow cytometry, KB-3-1; type: cell-based, human
# Description: Transition-metal-based polyoxoanions sometimes have the ability to catalyze a range of oxidation reactions and to generate the free radicals under mild conditions. Although it is not intended that embodiments of this disclosure be limited by any particular mechanism, it is quite reasonable that VPOA-6 may enhance the production or accumulation of reactive oxygen species (ROS) in cancer cells leading to oxidative stress and cell death. To test this hypothesis, the levels of total cellular ROS (H2O2) were measured using flow cytometry. […] To assess the functional importance of ROS induction in the VPOA-6-treated KB-3-1 cells, cells were co-treated with both VPOA-6 (5 and 10 μM) and a ROS scavenger N-acetyl-L-cysteine (NAC, 3 mM).
# KB-CP.5 cancer cells = experiment: Apoptosis of cisplatin-resistant KB-CP.5 cancer cells; type: cell-based, human
# Description: Apoptosis was measured after cells treated with VPOA-6 at different concentrations for 48 hr. […] NAC rescues the VPOA-6-induced apoptosis in KB-CP.5 cancer cells. Cancer cells were cultured with VPOA-6 (5 or 10 μM) with or without ROS scavenging agent NAC (3 mM) for 48 hr before apoptosis measurement.
# KB-3-1 cancer cells = experiment: Apoptosis of KB-3-1 cancer cells; type: cell-based, human
# Description: Apoptosis was measured after cancer cells were treated with the drug for 48 hr. […] Cancer cells were cultured with VPOA-6 (5 or 10 μM) with or without NAC (3 mM) for 48 hr before apoptosis measurement.
# [3] = Catalysis of ascorbic acid oxidation; type: biochemical; settings: air or peroxide, physiological conditions
# [4] = test system: SKOV-3, ovarian carcinoma cell; experiment: Cytotoxicity, cell counting kit-8, SKOV-3; type: cell-based, human; settings: SKOV-3 cells, 72 h
# Description: as §1, §2
# [5] = test system: D556, medulloblastoma cell; experiment: Cytotoxicity, cell counting kit-8, D556; type: cell-based; settings: D556 cells, 72 h
# Description: as §1, §2
# cancer cells [6] = experiment: Uptake into living cells by fluorescent labeling; type: cell-based; settings: 1 μM
# Description: (§3) One aspect of selectivity is the efficacy ratio of a therapeutic agent for normal cells versus cancer cells. In sharp contrast to cancer cells, human embryonic kidney HEK 293, human lung MRC-5, and human bronchus BEAS-2B normal cells are viable at VPOA-6 concentrations up to 20 μM. […] A fluorescent-labeling technique successfully images the uptake of VPOA-6 into living cells showing that cancer cells readily internalize this nanodrug within 8 hr even at very low concentrations (1 μM).
# [7] = test system: NCI-H460, large cell lung carcinoma; experiment: Cytotoxicity, cell counting kit-8, NCI-H460; type: cell-based, human; settings: NCI-H460 cells, 72 h
# Description: as §1, §2
# [8] = Side effects in treated tumor-bearing mice; type: in vivo
# Description: Mice were then euthanized, vital organs collected and processed for histological examination.
# [9] = test system: KB-3-1 human cervical carcinoma; experiment: KB-3-1 xenograft mouse model, antitumor efficacy; type: in vivo, mice; settings: for tumor inhibition effect: 16 μmol/kg i.p.
# Description: In vivo antitumor effect of VPOA-6. Inhibition of human head-and-neck KB-3-1 tumor growth by VPOA-6 treatment in tumor-bearing mice. […] Mice were then euthanized, vital organs collected and processed for histological examination.
# Human cervical cancer is one of the most aggressive forms of human cancer. […] Specifically when using i.p. administration, the tumor volume of VPOA-6-treated group at a dose of 40 μmol/kg was less than 40% of that control group at the end point. […] Evaluation of VPOA-6 side effects. A central issue in developing new chemotherapeutics is to minimize the side effects associated with the non-specific interaction of the drugs with normal organ tissues.
# [10] = test system: OVCAR-3, ovarian carcinoma; experiment: Cytotoxicity, cell counting kit-8, OVCAR-3; type: cell-based, human; settings: OVCAR-3 cells, 72 h
# Description: as §1, §2
# [11] = test system: KB-CP.5, cisplatin-resistant cervical carcinoma cell; experiment: Cytotoxicity, cell counting kit-8, KB-CP.5; type: cell-based, human
# Description: as §1
# (§4) The high incidence of drug resistance is a major challenge in treatment of relapsed and refractory cancers. […] The resistance of tumor cells to platinum-based chemotherapeutics is known to be associated with increased GSH levels; whereas cancer cells with high GSH levels are frequently more sensitive to drugs that affect GSH43.
# as §2
# KB-CP.5 cancer cell = experiment: ROS in drug-resistant KB-CP.5 cells; type: cell-based, human
# [12] = pH 7.4
# cancer cells [13] = experiment: TUNEL and Annexin V-PE staining assays; type: cell-based; settings: normal proliferating cells remain alive
# Description: as §3
# [14] = Catalysis of glutathione oxidation monitored by 1H NMR; type: biochemical
# Description: GSH (10 mM) in deuterated PBS (1×, pH 7.4) solution at 37° C. in a cell culture incubator. The arrow on the top spectrum indicates the chemical shift of a dominant peak (absent here) in the oxidation product (GSSG).
# Vanadium-containing compounds have extensive redox properties and consequently catalyze several organic substrate oxidations via free radical mechanisms. VPOA-6 is a highly efficient catalyst for oxidizing glutathione (GSH), the primary intracellular antioxidant, through both aerobic oxidation and peroxidation under physiologically relevant conditions. Glutathione is the most abundant cellular reducing metabolite with concentrations in the millimolar range and is regarded as the primary mechanism for protecting cells against oxidative stress during proliferation and growth. In order to evaluate the inherent catalytic capability of VPOA-6, proton nuclear magnetic resonance (1H NMR) spectroscopy was used to monitor the in vitro oxidation of GSH. Two reactions were designed for this purpose, GSH reacting with air (O2) and, separately, GSH reacting with peroxide (H2O2) in PBS buffer (1×pH 7.4) at 37° C.
# [15] = test system: human embryonic kidney HEK 293; type: cell-based
# Description: as §1
# One aspect of selectivity is the efficacy ratio of a therapeutic agent for normal cells versus cancer cells.
# as §2
# [16] = test system: KB-8-5, multi-drug resistant cervical carcinoma cell; experiment: Cytotoxicity, cell counting kit-8, KB-8-5; type: cell-based, human; settings: KB-8-5 cells, 72 h
# Description: as §1, §4, §2
compound,measurement,setting,value
[V6O13{(OCH2)3CNO2}2] [VPOA-NO2],IC50,KB-3-1 cancer cell line,13.7 ± 0.15 µM
[V6O13{(OCH2)3CCH3}2] [VPOA-CH3],IC50,KB-3-1 cancer cell line,16.21 ± 0.08 µM
[V6O13{(OCH2)3CCH2OH}2] [VPOA-OH],IC50,KB-3-1 cancer cell line,21 ± 1.47 µM
[O]=[V](=[O])[O][V](=[O])=[O] [V2O5],"activity and selectivity, KB-3-1 versus normal cells",[1],active but nonselective
OO [hydrogen peroxide],interaction with VPOA-6 in killing cancer cells,cancer cells [2],acted synergistically with VPOA-6
"CC(=O)N[C@@H](CS)C(=O)O [NAC, N-acetyl-L-cysteine, reference compound]",effect of NAC on ROS and cell killing by VPOA-6,"KB-3-1 cells; KB-3-1, VPOA-6 5 and 10 μM, NAC 3 mM",reduces ROS and the cell killing by VPOA-6
same,effect of NAC on VPOA-6-induced apoptosis,"KB-CP.5 cancer cells; KB-CP.5, VPOA-6 5 or 10 μM, NAC 3 mM, 48 hr",rescues
same,effect of NAC on VPOA-6-induced apoptosis,"KB-3-1 cancer cells; KB-3-1, VPOA-6 5 or 10 μM, NAC 3 mM, 48 hr",rescues
"CCCC[N+](CCCC)(CCCC)CCCC [TBA Cl, reference compound]",IC50,KB-3-1 cancer cell line,289 ± 12 µM
[V6O13{(OCH2)3CNH3}2] [VPOA-6],catalysis of ascorbic acid oxidation,[3],efficiently catalyzes ascorbic acid oxidation
same,ROS levels,"KB-3-1 cells; KB-3-1, 5 and 10 μM, versus non-treated cells",significant surge in ROS levels
same,IC50,[4],3.12 ± 0.05 µM
same,IC50,[5],7.36 ± 0.54 µM
same,time to internalization by cancer cells,cancer cells [6],≤ 8 h
same,IC50,[7],8.69 ± 0.91 µM
same,ROS and apoptosis in normal cells,normal cells,ROS increase but did not show obvious apoptosis
same,nephrotoxicity,"[8]; mouse, in vivo",not observed
same,tumor inhibition effect,[9]; weekly for 24 days,clearly demonstrated the antitumor effect
same,tumor volume relative to control group at the end point,"[9]; 40 μmol/kg i.p., weekly for 24 days",less than 40%
same,"tumor growth inhibition, overall","[9]; i.p. or i.v., KB-3-1 xenografted mice",significantly inhibits growth; also recorded: quite effective
same,tumor inhibition,[9]; i.v. administration,more significant tumor inhibition
same,IC50,[10],10.8 ± 0.49 µM
same,apoptosis,KB-CP.5 cancer cells; KB-CP.5,remarkable apoptosis
same,IC50,"[11]; KB-CP.5 cells, 72 h",5.53 µM
same,ROS levels,KB-CP.5 cancer cell,dramatic ROS increase
same,apoptosis,"KB-3-1 cancer cells; KB-3-1, 48 hr",Dose-dependent apoptosis
same,selective killing: cytotoxicity in cancer versus normal proliferating cells,"[1]; 0-20 μM, 72 h",no cytotoxicity in normal proliferating cells; also recorded: induces cell death in cancer cells (Tumor) but not in normal proliferating cells (Normal)
same,stability,[12],stable
same,IC50,KB-3-1 cancer cell line,3.45 µM and < 5 µM
same,apoptosis by TUNEL and Annexin V-PE staining,cancer cells [13],dramatic apoptosis of the cancer cells
same,product of GSH oxidation,"[14]; H2O2, PBS pH 7.4, 37° C., after 30 minutes","over-oxidized product, GS(═O)SG"
same,time for conversion of GSH to GSSG,"[14]; air, GSH 10 mM, PBS pH 7.4, 37° C.",≤ 30 min
same,toxicity in cell viability studies,[15],much less so
same,IC50,[16],3.7 µM
"N.N.[Cl][Pt][Cl] [cisplatin, reference compound]",IC50,[4],4.4 µM
same,mortality,[8]; increased dosages,widespread death
same,health and body weight of treated mice,[8]; treatment period,deteriorated health and severe body weight loss
same,tumor inhibition effect,[9]; weekly for 24 days,did not exhibit any tumor inhibition effect
same,resistance of KB-CP.5 compared to parental KB-3-1,[11]; KB-CP.5 versus KB-3-1,ca. 40 fold
same,IC50,KB-3-1 cancer cell line,2.8 µM
[Na+].[Na+].[Na+].[O]=[V]([O-])([O-])[O-] [Na3VO4],"activity and selectivity, KB-3-1 versus normal cells",[1],active but nonselective
[Na+].[O]=[V](=[O])[O-] [NaVO3],"activity and selectivity, KB-3-1 versus normal cells",[1],active but nonselective
